According to patent US6380218B1, “Nicotinamide derivatives” (Pfizer Inc, priority 1997, dated 2002):

Experiments:
[1] = test system: leukotriene E4 (LTE4) release, human whole blood eosinophils; assay: Sephadex beads-induced LTE4 release in human whole blood (eosinophil activation); assay type: cell-based; conditions: for Enantiomer (+) vs. (−), LTE4: potency of (+) relative to (−) enantiomer; for IC50: Eosinophil, Sephadex beads, head does not say whether IC30 or IC50, read-out: HWB Eosinophil IC30 or IC50, LTE4
Protocol: (§1) Inhibition of Eosinophil Degranulation and Activation in Human Whole Blood
(§2) Human Blood Eosinophil Degranulation and Activation Measurement
(§3) Blood Collection and Compound Incubation
(§4) One hundred ml blood is obtained from normal volunteers in Vacutainer tube #6480 (14.3 USP units sodium heparin/ml blood). Heparinized blood is pooled in 50 ml conical centrifuge tubes at 22° C. On ml blood is placed in a 12×75 mm siliconized glass tube containing 1 ul DMSO or 1 ul test compound in triplicate. After mixing, tubes are placed in a shaking water bath at 37° C. for 15 minutes. One ul PGE1 in DMSO is added to all tubes to give a final concentration of 1 uM. After mixing, 100 ul PBS (negative control) or Sephadex G-15 beads in PBS (8.25-16.5 mg/ml final concentration) is added to tubes. After mixing, all tubes are incubated in a shaking water bath at 37° C. for 1-2 hours.
(§5) Preparation of Plasma Samples
(§6) At the end of incubation, 20 ul of 15% EDTA in PBS is added to each assay tube. After mixing, the samples are centrifuged at 2,000 rpm (Sorvall 6000B centrifuge) at 22° C. for 5 minutes.
(§7) EDN (or EPX) and LTE4 Measurements and the Effect of Compounds
(§8) All plasma samples are tested for EDN (eosinophil derived neurotoxin) and LTE4 (leukotriene E4) levels. […] The levels of EDN and LTE4 are determined by a RIA (Kabi Pharmacia Diagnostics) and EIA (Cayman Chemical), respectively. EDN and LTE4 levels are calculated by comparison to a standard curve using Microsoft Excel or other appropriate software. Percent of control EDN or LTE4 release is calculated by:
% Control LTE4=[LTE4(compound)−LTE4(blank)]/[LTE4(total)−LTE4(blank)]
(§9) where the blank is the level of EDN or LTE4 in the absence of Sephadex beads and the total is the level of EDN or LTE4 in the presence of Sephadex beads. An IC30 or IC50 value is defined as the concentration of a compound that inhibits specific EDN or LTE 4 release by 30 or 50%, respectively.
(§10) To assess pharmacologically which PDE4 isozyme(s) is responsible for eosinophil activation, we have prepared enantiomers of PDE4 inhibitors and compare the inhibitory effect of these enantiomers on PDE activity and eosinophil activation. PDE4 activity is assessed by measuring hydrolysis of 1 uM cAMP by individual human recombinant PDE4 isozymes (PDE4A, 4B, 4C or 4D). Eosinophil activation is estimated by measuring Sephadex beads-induced release of eosinophil derived neurotoxin (EDN) and leukotriene E4 in human whole blood. Table 1 illustrates comparison of one example of (−) and (+) enantiomers on the activity of individual PDE4 isozymes and on the release of END and LTE4.

human recombinant PDE4B = human recombinant PDE4B (Homo sapiens, UniProt Q07343); assay: Hydrolysis of 1 uM cAMP by human recombinant PDE4B; assay type: biochemical; conditions: for Enantiomer (+) vs. (−), PDE4B: potency of (+) relative to (−) enantiomer; for IC50: human recombinant PDE4B, 1 uM cAMP, read-out: Isozyme - IC50, B
human recombinant PDE4B, sequence (Q07343 whole entry): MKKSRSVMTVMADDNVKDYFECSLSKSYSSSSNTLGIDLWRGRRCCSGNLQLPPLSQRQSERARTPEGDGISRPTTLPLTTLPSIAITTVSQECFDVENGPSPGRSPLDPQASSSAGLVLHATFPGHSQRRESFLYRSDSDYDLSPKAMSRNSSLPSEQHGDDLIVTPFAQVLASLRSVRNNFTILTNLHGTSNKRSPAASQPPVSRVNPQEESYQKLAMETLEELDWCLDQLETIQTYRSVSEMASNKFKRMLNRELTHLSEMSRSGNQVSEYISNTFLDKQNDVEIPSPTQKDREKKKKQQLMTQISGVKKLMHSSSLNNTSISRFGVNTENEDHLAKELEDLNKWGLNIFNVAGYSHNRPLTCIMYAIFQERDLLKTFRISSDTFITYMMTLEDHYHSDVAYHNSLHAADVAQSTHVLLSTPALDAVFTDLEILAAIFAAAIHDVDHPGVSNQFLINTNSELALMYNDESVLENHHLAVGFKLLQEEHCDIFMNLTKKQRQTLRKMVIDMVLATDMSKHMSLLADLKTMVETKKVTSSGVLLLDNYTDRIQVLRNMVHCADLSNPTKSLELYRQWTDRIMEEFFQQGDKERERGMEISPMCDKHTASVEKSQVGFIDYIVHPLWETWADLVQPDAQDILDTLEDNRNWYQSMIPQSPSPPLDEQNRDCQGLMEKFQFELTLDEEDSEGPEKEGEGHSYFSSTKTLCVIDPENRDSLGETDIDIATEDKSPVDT
Protocol: as §10

human recombinant PDE4D = human recombinant PDE4D (Homo sapiens, UniProt Q08499); assay: Hydrolysis of 1 uM cAMP by human recombinant PDE4D; assay type: biochemical; conditions: for Enantiomer (+) vs. (−), PDE4D: potency of (+) relative to (−) enantiomer; for IC50: human recombinant PDE4D, 1 uM cAMP, read-out: Isozyme - IC50, 4D
human recombinant PDE4D, sequence (Q08499 whole entry): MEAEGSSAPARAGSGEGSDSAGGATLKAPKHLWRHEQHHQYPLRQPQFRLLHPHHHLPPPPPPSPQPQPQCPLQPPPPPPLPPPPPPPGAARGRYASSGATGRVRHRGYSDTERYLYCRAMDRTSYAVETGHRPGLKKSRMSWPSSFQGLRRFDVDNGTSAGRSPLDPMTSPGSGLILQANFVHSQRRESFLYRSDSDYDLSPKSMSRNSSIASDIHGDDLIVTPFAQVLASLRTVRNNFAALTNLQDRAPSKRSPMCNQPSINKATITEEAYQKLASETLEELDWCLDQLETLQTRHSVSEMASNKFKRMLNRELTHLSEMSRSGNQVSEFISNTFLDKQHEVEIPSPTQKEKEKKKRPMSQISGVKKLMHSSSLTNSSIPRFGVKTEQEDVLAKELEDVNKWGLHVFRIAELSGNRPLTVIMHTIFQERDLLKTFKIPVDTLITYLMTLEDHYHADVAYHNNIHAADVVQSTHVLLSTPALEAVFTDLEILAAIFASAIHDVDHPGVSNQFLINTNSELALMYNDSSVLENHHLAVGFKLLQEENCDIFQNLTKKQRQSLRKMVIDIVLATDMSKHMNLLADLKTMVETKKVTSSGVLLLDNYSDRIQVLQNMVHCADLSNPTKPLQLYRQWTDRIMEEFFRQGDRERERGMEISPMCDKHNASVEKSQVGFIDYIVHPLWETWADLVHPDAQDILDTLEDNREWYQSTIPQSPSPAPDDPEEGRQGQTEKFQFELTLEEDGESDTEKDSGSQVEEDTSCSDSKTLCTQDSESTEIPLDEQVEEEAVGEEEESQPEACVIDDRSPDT
Protocol: as §10

human recombinant PDE4A = human recombinant PDE4A (Homo sapiens, UniProt P27815); assay: Hydrolysis of 1 uM cAMP by human recombinant PDE4A; assay type: biochemical; conditions: for Enantiomer (+) vs. (−), PDE4A: potency of (+) relative to (−) enantiomer; for IC50: human recombinant PDE4A, 1 uM cAMP, read-out: Isozyme - IC50, A
human recombinant PDE4A, sequence (P27815 whole entry): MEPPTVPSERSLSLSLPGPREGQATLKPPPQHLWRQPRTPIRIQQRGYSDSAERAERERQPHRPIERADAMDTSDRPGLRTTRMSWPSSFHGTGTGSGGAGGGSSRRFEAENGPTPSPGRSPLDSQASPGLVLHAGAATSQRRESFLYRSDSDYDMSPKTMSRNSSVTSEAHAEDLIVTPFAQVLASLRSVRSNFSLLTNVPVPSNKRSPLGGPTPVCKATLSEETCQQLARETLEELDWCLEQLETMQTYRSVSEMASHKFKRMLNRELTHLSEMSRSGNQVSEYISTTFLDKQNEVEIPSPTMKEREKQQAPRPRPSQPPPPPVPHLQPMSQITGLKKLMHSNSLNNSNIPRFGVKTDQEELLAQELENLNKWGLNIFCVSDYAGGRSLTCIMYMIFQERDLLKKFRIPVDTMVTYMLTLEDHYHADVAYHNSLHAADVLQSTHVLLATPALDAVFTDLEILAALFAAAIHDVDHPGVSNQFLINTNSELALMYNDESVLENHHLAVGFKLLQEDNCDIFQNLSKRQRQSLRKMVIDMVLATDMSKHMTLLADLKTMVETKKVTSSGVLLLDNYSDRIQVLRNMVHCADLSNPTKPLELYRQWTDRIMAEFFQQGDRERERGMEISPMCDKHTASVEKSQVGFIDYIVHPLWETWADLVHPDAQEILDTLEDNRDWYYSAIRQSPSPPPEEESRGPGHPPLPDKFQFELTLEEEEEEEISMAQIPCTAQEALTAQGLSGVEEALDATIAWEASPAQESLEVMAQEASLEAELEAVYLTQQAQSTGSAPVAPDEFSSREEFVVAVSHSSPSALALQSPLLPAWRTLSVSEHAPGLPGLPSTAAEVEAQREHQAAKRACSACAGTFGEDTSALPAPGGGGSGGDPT
Protocol: as §10

human recombinant PDE4C = human recombinant PDE4C (Homo sapiens, UniProt Q08493); assay: Hydrolysis of 1 uM cAMP by human recombinant PDE4C; assay type: biochemical; conditions: for Enantiomer (+) vs. (−), PDE4C: potency of (+) relative to (−) enantiomer; for IC50: human recombinant PDE4C, 1 uM cAMP, read-out: Isozyme - IC50, C
human recombinant PDE4C, sequence (Q08493 whole entry): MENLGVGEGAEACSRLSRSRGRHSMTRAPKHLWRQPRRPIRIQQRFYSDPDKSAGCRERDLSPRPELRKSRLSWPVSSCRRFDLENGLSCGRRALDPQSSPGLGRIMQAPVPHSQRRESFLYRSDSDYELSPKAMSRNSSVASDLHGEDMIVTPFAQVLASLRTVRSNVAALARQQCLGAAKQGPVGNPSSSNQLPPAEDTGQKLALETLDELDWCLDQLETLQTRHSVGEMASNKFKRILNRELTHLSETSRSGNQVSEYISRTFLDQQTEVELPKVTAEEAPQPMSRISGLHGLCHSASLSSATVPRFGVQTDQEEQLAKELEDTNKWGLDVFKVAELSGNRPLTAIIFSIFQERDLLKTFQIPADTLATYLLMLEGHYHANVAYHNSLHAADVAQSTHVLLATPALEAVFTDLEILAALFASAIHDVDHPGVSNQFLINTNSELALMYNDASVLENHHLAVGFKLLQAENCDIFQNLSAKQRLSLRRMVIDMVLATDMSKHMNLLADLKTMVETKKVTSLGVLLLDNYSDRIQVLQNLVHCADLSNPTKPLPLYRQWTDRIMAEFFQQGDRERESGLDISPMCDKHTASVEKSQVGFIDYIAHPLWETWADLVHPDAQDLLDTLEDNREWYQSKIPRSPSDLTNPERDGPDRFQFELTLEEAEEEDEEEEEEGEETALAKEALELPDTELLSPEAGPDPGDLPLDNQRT
Protocol: as §10

[2] = test system: eosinophil derived neurotoxin (EDN) release, human whole blood eosinophils; assay: Sephadex beads-induced EDN release in human whole blood (eosinophil degranulation); assay type: cell-based; conditions: for Enantiomer (+) vs. (−), EDN: potency of (+) relative to (−) enantiomer, human whole blood; for IC50: Homo sapiens, Eosinophil, read-out: HWB Eosinophil IC30 or IC50, EDN
Protocol: as §1, §2, §3, §4, §5, §6, §7, §8
% Control EDN=[EDN(compound)−EDN(blank)]/[EDN(total)−EDN(blank)]
as §9, §10

Row | Compound | Enantiomer (+) vs. (−), LTE4 [1] | Enantiomer (+) vs. (−), PDE4B (human recombinant PDE4B) | Enantiomer (+) vs. (−), PDE4D (human recombinant PDE4D) [X] | Enantiomer (+) vs. (−), PDE4A (human recombinant PDE4A) | Enantiomer (+) vs. (−), PDE4C (human recombinant PDE4C) | Enantiomer (+) vs. (−), EDN [2] | IC50 [1] [nM] | IC50 (human recombinant PDE4B) [nM] | IC50 (human recombinant PDE4D) [nM] | IC50 (human recombinant PDE4A) [nM] | IC50 (human recombinant PDE4C) [nM] | IC50 [2] [nM]
1 | (S)-(+) 2-(4-Fluoro-phenoxy)-N-[1-(4-methoxy-phenyl)-ethyl]-nicotinamide [(+) Enantiomer] | 37X | .5X | 22 | .s. | 0.5X | 20X |  |  |  |  |  | 
2 | COc1ccc([C@H](C)NC(=O)c2cccnc2Oc2ccc(F)cc2)cc1 [(+) Enantiomer, (S)-(+) 2-(4-Fluoro-phenoxy)-N-[1-(4-methoxy-phenyl)-ethyl]-nicotinamide] | 20-37 X | approximately equipotent | 22 | approximately equipotent | approximately equipotent | 20-37 X | 8 | 600 | 9 | 600 | 800 | 50
3 | COc1ccc([C@@H](C)NC(=O)c2cccnc2Oc2ccc(F)cc2)cc1 [(−) Enantiomer, (R)(−)2-(4-Fluoro-phenoxy)-N-[1-(4-methoxy-phenyl)-ethyl]-nicotinamide] |  |  |  |  |  |  | 300 | 300 | 200 | 600 | 400 | 1000
